Laboratory results: patent US11225481B2 (Centre national de la recherche scientifique, priority 2015, dated 2022)
Like-named read-outs stand apart in the source and are kept apart here.

Assays:
Type in all cases: binding
BRD4(BD1) = target: T1, BRD4(BD1) (Homo sapiens, UniProt O60885); test: HTRF assay, disruption of bromodomain/histone peptide interaction
T1 construct: a BRD4(BD1) synthetic gene that includes a TEV cleavage site was purchased from LifeTechnology; made in house
Experimental: (§1) HTRF assays were performed in white 384 Well Small Volume™ HiBase Polystyrene Microplates (Greiner) with a total working volume of 20 μL. Compounds were dispensed, with 200 nL per well (1% final DMSO), from a concentration stock of 1 mM in 100% DMSO and with serial DMSO dilutions, using a Mosquito Crystal pipetting robot platform (TTP labtech). The IC50 measurements were performed in triplicates (Table 2 and 3). All HTRF reagents were purchased from CisBio Bioassays and reconstituted according to the supplier protocols. For each assay 14.7 μL of mix 1 (protein+peptide) is added in the assay wells, containing previously dispensed inhibitors, according to the final concentration and buffer described in Table 4, using a Biomek NX MC pipetting robot (Beckman). Then, 5.1 μL of mix 2 (donnor+acceptor) is added. HTRF signals were measured, after a final incubation (overnight at room temperature), using a PHERAstar FS (BMG Labtech) with an excitation filter at 337 nm and fluorescence wavelength measurement at 620 and 665 nm, an integration delay of 60 μs and an integration time of 500 μs. Results were analyzed with a two-wavelengths signal ratio: [intensity (665 nm)/intensity (620 nm)]*10^4. Percentage of inhibition was calculated using the following equation: % inhibition=[(compound signal)−(min signal)]/[(max signal)−(min signal)]*100, where ‘max signal’ is the signal ratio with the compound vehicle alone (DMSO) and ‘min signal’ the signal ratio without peptide.
For Isothermal Titration Calorimetry (ITC) and crystallogenesis, BRD4(BD1) was produced and purified using a histidine tag affinity chromatography as described by Filipakopoulos et al.9 For these experiments, a pNIC28-BSA4 expression vector containing BRD4(BD1) and a Tobacco Etch Virus (TEV) protease cleavage site have kindly been provided by Stefan Knapp laboratory from the SGC at the University of Oxford. After size exclusion chromatography, the fractions presenting pure BRD4(BD1) after TEV cleavage of the histidine tag were pooled and concentrated to 25 mg/mL for crystallogenesis. For ITC assays, the protein was concentrated up to at 6 mg/mL and the DTT was removed using a buffer exchange column (PD10 from GE healthcare) equilibrated with 10 mM HEPES pH=7.5, 150 mM NaCl. For Homogeneous Time Resolved Fluorimetry (HTRF) experiments, a BRD4(BD1) synthetic gene that includes a TEV cleavage site was purchased from LifeTechnology in a pDONR transport vector before cloning into a pDESTTM15 expression vector for GST affinity purification. Protein production and purification was carried out using similar protocols and buffers as used for the His-BRD4(BD1) system. Purification was carried on GST affinity resin (Thermo Scientific) and reduced glutathione was used for protein release. GST-BRD4(BD1) was further purified by size exclusion chromatography on a Superdex 16/60 Hiload column (GE Healthcare) using 20 mM TRIS pH=8.0, 150 mM NaCl Buffer.

BRD3(BD1) = target: T2, BRD3(BD1) (Homo sapiens, UniProt Q15059); test: HTRF bromodomain selectivity profile; details: Table 3 selectivity profile
T2 construct: purchased BPS Bioscience
T2 sequence (Q15059 34-140 limits assumed): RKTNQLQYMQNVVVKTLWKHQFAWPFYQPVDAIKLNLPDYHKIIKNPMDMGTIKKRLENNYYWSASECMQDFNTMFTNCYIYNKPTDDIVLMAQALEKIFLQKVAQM
Experimental: as §1, with “Compounds” for “HTRF assays were performed in white 384 Well Small Volume™ HiBase Polystyrene Microplates (Greiner) with a total working volume of 20 μL. Compounds”, “The IC50 measurements were performed in triplicates (Table 2 and 3).” left out, “[intensity (665 nm)/intensity (620 nm)]*10^4.” left out, “peptide. For IC50 measurements, values were normalized and fitted with Prism (GraphPad software) using the following equation: […] Selectivity profiles of bromodomain inhibitors were performed as described in HTRF screen section. […] HTRF detection reagents (EPIgeneous™ Binding Domain kits) were purchased from Cisbio Bioassays and used according to supplier's protocol. GST tagged bromodomain proteins were purchased from BPS Bioscience and histone peptide from Anaspec. [table]” for “peptide.”

BRD3(BD2) = target: T3, BRD3(BD2) (Homo sapiens, UniProt Q15059); test: HTRF bromodomain selectivity profile; details: Table 3 selectivity profile
T3 construct: purchased BPS Bioscience
T3 sequence (Q15059 306-415 limits assumed): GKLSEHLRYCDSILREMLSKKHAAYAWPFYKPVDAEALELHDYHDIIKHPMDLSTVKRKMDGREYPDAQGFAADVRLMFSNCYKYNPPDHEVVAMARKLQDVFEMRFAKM
Experimental: as §1, with “Compounds” for “HTRF assays were performed in white 384 Well Small Volume™ HiBase Polystyrene Microplates (Greiner) with a total working volume of 20 μL. Compounds”, “The IC50 measurements were performed in triplicates (Table 2 and 3).” left out, “[intensity (665 nm)/intensity (620 nm)]*10^4.” left out, “peptide. For IC50 measurements, values were normalized and fitted with Prism (GraphPad software) using the following equation: […] Selectivity profiles of bromodomain inhibitors were performed as described in HTRF screen section. […] HTRF detection reagents (EPIgeneous™ Binding Domain kits) were purchased from Cisbio Bioassays and used according to supplier's protocol. GST tagged bromodomain proteins were purchased from BPS Bioscience and histone peptide from Anaspec. [table]” for “peptide.”

BRD2(BD1) = target: T4, BRD2(BD1) (Homo sapiens, UniProt P25440); test: HTRF bromodomain selectivity profile; details: Table 3 selectivity profile
T4 construct: purchased BPS Bioscience
T4 sequence (P25440 74-180 limits assumed): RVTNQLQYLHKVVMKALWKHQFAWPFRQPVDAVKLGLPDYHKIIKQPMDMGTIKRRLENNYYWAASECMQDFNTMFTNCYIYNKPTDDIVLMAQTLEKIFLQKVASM
Experimental: as §1
(§2) Selectivity profiles of bromodomain inhibitors were performed as described in HTRF screen section. […] HTRF detection reagents (EPIgeneous™ Binding Domain kits) were purchased from Cisbio Bioassays and used according to supplier's protocol. GST tagged bromodomain proteins were purchased from BPS Bioscience and histone peptide from Anaspec.

BRD2(BD2) = target: T5, BRD2(BD2) (Homo sapiens, UniProt P25440); test: HTRF bromodomain selectivity profile; details: Table 3 selectivity profile
T5 construct: purchased BPS Bioscience
T5 sequence (P25440 344-453 limits assumed): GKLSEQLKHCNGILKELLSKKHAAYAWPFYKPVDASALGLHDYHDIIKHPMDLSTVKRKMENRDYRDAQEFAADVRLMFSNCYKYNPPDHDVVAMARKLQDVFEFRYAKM
Experimental: as §1, §2

BRD4(BD2) = target: T6, BRD4(BD2) (Homo sapiens, UniProt O60885); test: HTRF bromodomain selectivity profile; details: Table 3 selectivity profile
T6 construct: purchased BPS Bioscience
Experimental: as §1, §2

BRDT(BD1) = target: T7, BRDT(BD1) (Homo sapiens, UniProt Q58F21); test: HTRF bromodomain selectivity profile; details: Table 3 selectivity profile
T7 construct: purchased BPS Bioscience
Experimental: as §1, §2

BET bromodomains = test: Selectivity profile across BET bromodomains (HTRF)
Experimental: as §2

- IC50 (BRD4(BD1); HTRF, Table 1′, TABLE 2, read-out: BRD4(BD1) IC50): 5 µM
- IC50 (BRD4(BD1); HTRF, mean ± SD of three experiments, Table 2, read-out: IC50 μM, effect on BRD4(BD1) activity): 5 µM
- LE (Ligand Efficiency) (BRD4(BD1); LE = 1.4(−log(IC50)/N), BRD4(BD1)): 0.22
- IC50 (BRD4(BD1); Table 3 selectivity profile, mean ± SD of three experiments, read-out: IC50 (μM) BRD4(BD1)): 5 ± 0.1 µM
- IC50 (BRD3(BD1)): 62 ± 7.8 µM
- IC50 (BRD3(BD2)): > 100 µM
- IC50 (μM) BRD3(BD2) (BRD3(BD2)): no detectable inhibition
- IC50 (BRD2(BD1)): 59 ± 2.9 µM
- IC50 (BRD2(BD2)): > 100 µM
- IC50 (μM) BRD2(BD2) (BRD2(BD2)): no detectable inhibition
- IC50 (BRD4(BD2)): > 100 µM
- IC50 (μM) BRD4(BD2) (BRD4(BD2)): no detectable inhibition
- IC50 (BRDT(BD1)): > 100 µM
- fold lower IC50 towards BRD4(BD1) as compared to its relatives BD1 (BET bromodomains; HTRF): 10 fold
SMILES: CCCCc1c(C)nc2nc(SCc3nc4c(c(=O)[nH]c(=O)n4CCCC)n3CC)nn2c1C [Compound 26b, 3-Butyl-8-(6-butyl-5,7-dimethyl-[1,2,4]triazolo[1,5-a]pyrimidin-2-ylsulfanylmethyl)-7-ethyl-3,7-dihydro-purine-2,6-dione]
- selectivity profile among BET bromodomains (BET bromodomains; in words): selective towards BRD4(BD1)
